# Measurements reported in patent publication US11534457B2, “Use of dextran sulfate” (priority 2017, dated 2022).
# Tested on: Mouse cortical neurons (Lonza)
# Assay: Gene expression array and pathway analysis, cortical neurons
# Type: cell-based
# Conditions: 0.01 mg/ml, 48 h
# Protocol: For each cell line, n=8×25 cm^2 culture flasks were set up. Two flasks were harvested for each cell type on the day of treatment (24 hours after seeding). This represents the Day0 time point. From the remaining flasks, three flasks were treated with Control Medium and three were treated with Culture Medium (CM) containing LMW-DS to give a final concentration of 0.01 mg/ml. Cells from the treated flasks were collected after 48 hours. Therefore the collected data represent (a) untreated cells (Day0 Controls and Day2 Controls) and (b) cells treated with LMW-DS for 48 hours (Day2 LMW-DS treated).
# 25 cm^2 flasks were coated by adding 2 ml per flask of a solution of 50 μg/ml poly-d-lysine in Hank's balanced salt solution (HBSS) and incubating overnight at 37° C. in the dark. Flasks were washed with cell culture water and air-dried for 30 min in the dark. Flasks were coated by adding 1 ml per flask of a solution of 25 μg/ml laminin in phosphate-buffered saline (PBS) and incubating for 2 hour at 37° C. in the dark. The laminin flasks were washed with PBS three times before plating cells.
# Medium was prepared by adding 10 ml B-27 Serum-Free Supplement and 2.5 ml GlutaMAX™-1 Supplement to 500 ml of Neurobasal medium. The medium was pre-warmed to 37° C. Cells from 12 vials were thawed sequentially in a 37° C. water bath for no longer than 2 min and gently transferred into a 15 ml tube. 9 ml of medium was gently added drop-wise to each. The cell suspension was mixed by inverting the tubes carefully twice.
# The cells were centrifuged for 5 minutes at 200×g. Supernatant was removed (to the last 0.5 ml) and cells were gently resuspended by trituration. The cells from the 12 vials were mixed and distributed equally into the previously coated 25 cm^2 flasks (n=8). Cells were incubated at 37° C. with 5% CO2 for 24 hours.
# LMW-DS was provided at a stock concentration of 20 mg/ml and was kept in a temperature monitored refrigerator at 4° C. A fresh […]LMW-DS stock (1.0 mg/ml) was prepared in sterile DMEM-F12. The concentrated drug stock was sterile filtered and added to the respective culture media (19.6 ml CM and 0.4 ml LMW-DS stock solution). The Control was made using 19.6 ml CM and 0.4 ml of DMEM-F12. LMW-DS and CM were added to the respective flasks (5 ml each) to reach the 0.01 mg/ml concentration of LMW-DS in each dish with a total of 10 ml CM each.
# CM was aspirated into a clean and labelled 15 ml Falcon tube. The flasks (without culture medium) were placed into the −80° C. freezer for 30 minutes. The CM in the Falcon tubes were spun at 3000×g for 5 minutes. Supernatant was removed and the small pellet was re-suspended in 2.5 ml Trizol:Water (4:1) solution at room temperature (RT, […]).
# Two aliquots of 1 ml lysate was removed from each sample and 200 μl of chloroform was added to each (0.2 ml of chloroform per 1 ml of TRIzol Reagent used during the cell lysis step) and the tube was shaken vigorously. Samples were stored at RT for 2-3 minutes and subsequently centrifuged at 12,000×g for 15 minutes at 4° C.
# The expression data were downloaded into separate files for each cell line. The ‘Background corrected’ expression is the data from the “gProcessedSignal” of the arrays that is the result of the background signal extracted from the actual signal of the relevant probe. This is the most often used variable in array analysis. The background corrected signal was log 2 transformed for all samples for statistical analysis. To reduce the false discovery rate in the samples, the signals that were below ‘expression level’ were removed. The ‘below expression’ level was set at 5 for the log 2 transformed expression values.
# Based on the expression pattern of the Control probes on each array it was decided to carry out Median Centering for all arrays before analysis to reduce the variability of the results. […]
substance,measurement,value
low molecular weight dextran sulfate [LMW-DS],MMP-related genes differentially expressed,none
same,cellular attachment from expression patterns (neurons),significant inhibition of cellular attachment
same,downstream effector molecules of GDF7,activated
same,glutamate production,dis not alter
same,"number of genes differentially expressed, D0 control to the D2 LMW-DS treated samples (second statement)",247 genes
same,"number of genes differentially expressed, D0 control vs D2 LMW-DS treated",609 genes
same,number of genes: abolished nutrient effect / no effect,572
same,number of genes: abolished nutrient effect / significant downregulation,7
same,number of genes: abolished nutrient effect / significant upregulation,33
same,number of genes: abolished nutrient effect / total,612
same,number of genes: enhanced response to nutrients / significant downregulation,158
same,number of genes: enhanced response to nutrients / significant upregulation,43
same,number of genes: enhanced response to nutrients / total,612
same,number of genes: new effect induced by LMW-DS / no effect,19
same,number of genes: new effect induced by LMW-DS / significant downregulation,22
same,number of genes: new effect induced by LMW-DS / significant upregulation,7
same,number of genes: new effect induced by LMW-DS / total,48
same,number of genes: not different from control / significant downregulation,95
same,number of genes: not different from control / significant upregulation,221
same,number of genes: not different from control / total,316
same,number of genes: total / no effect,591
same,number of genes: total / significant downregulation,282
same,number of genes: total / significant upregulation,304
same,number of genes: total / total,1177
same,"oxidative-stress effects: amyloid-β and Lewy body pathology, mitochondrial dysfunction",able to prevent and reverse most of these deleterious effects
